Data taken from PubChem BioAssay AID256 (DTP/NCI, 2004).
Values joined by “and” are separate entries in the source; they are usually repeats but may differ in a detail not shown here. Equal entries are not always repeated. Inconclusive results and toxic doses are left out.

Test system: CD2F1 mice, L1210 leukemia ip, survival T/C
Experiment: NCI In Vivo Anticancer Drug Screen. Data for tumor model L1210 Leukemia (intraperitoneal) in CD2F1 (CDF1) mice
Conditions: higher = longer survival
In short: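 Vehicle-treated tumor-bearing mice served as controls (C) for compound-treated mice (T). Reported figure is T divided by C.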

[1] = endpoint: mean survival time, dose: 12.5 mg/kg/injection, schedule: Q01DX009 (ip), vehicle: water
[2] = endpoint: mean survival time, dose: 25.0 mg/kg/injection, schedule: Q01DX009 (ip), vehicle: water
[3] = endpoint: mean survival time, dose: 100.0 mg/kg/injection, schedule: Q04DX003 (ip), vehicle: saline with Tween-80
[4] = endpoint: mean survival time, dose: 200.0 mg/kg/injection, schedule: Q04DX003 (ip), vehicle: saline with Tween-80
[5] = endpoint: mean survival time, dose: 400.0 mg/kg/injection, schedule: Q04DX003 (ip), vehicle: saline with Tween-80

O=C(O)c1ccc([N+](=O)[O-])cc1.[Ag]
T/C (endpoint: mean survival time, dose: 3.13 mg/kg/injection, schedule: Q01DX009 (ip), vehicle: saline with Tween-80): 102 % of control | T/C (endpoint: mean survival time, dose: 6.25 mg/kg/injection, schedule: Q01DX009 (ip), vehicle: saline with Tween-80): 102 % of control | T/C (endpoint: mean survival time, dose: 6.25 mg/kg/injection, schedule: Q04DX003 (ip), vehicle: saline with Tween-80): 96 % of control | T/C (endpoint: mean survival time, dose: 12.5 mg/kg/injection, schedule: Q01DX009 (ip), vehicle: saline with Tween-80): 98 % of control | T/C (endpoint: mean survival time, dose: 12.5 mg/kg/injection, schedule: Q04DX003 (ip), vehicle: saline with Tween-80): 96 % of control

COc1cc2c(c(OC)c1OC)-c1ccc(OC)c(=O)cc1[C@@H](NC(C)=O)CC2
T/C (endpoint: mean survival time, dose: 0.02 mg/kg/injection, schedule: Q01DX009 (ip), vehicle: saline): 117 % of control | T/C (endpoint: mean survival time, dose: 0.03 mg/kg/injection, schedule: Q01DX009 (ip), vehicle: water): 93 % of control | T/C (endpoint: mean survival time, dose: 0.04 mg/kg/injection, schedule: Q01DX009 (ip), vehicle: saline): 103 % of control | T/C (endpoint: mean survival time, dose: 0.05 mg/kg/injection, schedule: Q01DX009 (ip), vehicle: saline): 102 % of control | T/C (endpoint: mean survival time, dose: 0.06 mg/kg/injection, schedule: Q01DX005 (ip), vehicle: Klucel (hydroxypropylcellulose) (HPC)): 103 % of control | T/C (endpoint: mean survival time, dose: 0.08 mg/kg/injection, schedule: Q01DX009 (ip), vehicle: saline): 105 % of control | T/C (endpoint: mean survival time, dose: 0.1 mg/kg/injection, schedule: Q01DX009 (ip), vehicle: saline): 100 % of control | T/C (endpoint: mean survival time, dose: 0.13 mg/kg/injection, schedule: Q01DX005 (ip), vehicle: Klucel (hydroxypropylcellulose) (HPC)): 97 % of control | T/C (endpoint: mean survival time, dose: 0.13 mg/kg/injection, schedule: Q01DX005 (ip), vehicle: water): 117 % of control | T/C (endpoint: mean survival time, dose: 0.16 mg/kg/injection, schedule: Q01DX009 (ip), vehicle: saline): 111 % of control | T/C (endpoint: mean survival time, dose: 0.19 mg/kg/injection, schedule: Q01DX009 (ip), vehicle: saline): 104 % of control | T/C (endpoint: mean survival time, dose: 0.25 mg/kg/injection, schedule: Q01DX005 (ip), vehicle: Klucel (hydroxypropylcellulose) (HPC)): 114 % of control | T/C (endpoint: mean survival time, dose: 0.25 mg/kg/injection, schedule: Q01DX005 (ip), vehicle: water): 122 % of control | T/C (endpoint: mean survival time, dose: 0.35 mg/kg/injection, schedule: Q04DX004 (ip), vehicle: saline): 111 % of control | T/C (endpoint: mean survival time, dose: 0.38 mg/kg/injection, schedule: Q01DX009 (ip), vehicle: saline): 111 % of control | T/C (endpoint: mean survival time, dose: 0.5 mg/kg/injection, schedule: Q01DX005 (ip), vehicle: Klucel (hydroxypropylcellulose) (HPC)): 123 % of control | T/C (endpoint: mean survival time, dose: 0.54 mg/kg/injection, schedule: Q04DX004 (ip), vehicle: saline): 112 % of control | T/C (endpoint: mean survival time, dose: 0.75 mg/kg/injection, schedule: Q01DX009 (ip), vehicle: saline): 118 % of control and 111 % of control | T/C (endpoint: mean survival time, dose: 0.8 mg/kg/injection, schedule: Q04DX004 (ip), vehicle: saline): 115 % of control | T/C (endpoint: mean survival time, dose: 1.2 mg/kg/injection, schedule: Q04DX004 (ip), vehicle: saline): 122 % of control | T/C (endpoint: median survival time, dose: 0.02 mg/kg/injection, schedule: Q01DX009 (ip), vehicle: saline): 88 % of control and 100 % of control | T/C (endpoint: median survival time, dose: 0.04 mg/kg/injection, schedule: Q01DX009 (ip), vehicle: saline): 100 % of control | T/C (endpoint: median survival time, dose: 0.08 mg/kg/injection, schedule: Q01DX009 (ip), vehicle: saline): 100 % of control and 105 % of control | T/C (endpoint: median survival time, dose: 0.13 mg/kg/injection, schedule: Q01DX005 (ip), vehicle: saline): 111 % of control | T/C (endpoint: median survival time, dose: 0.16 mg/kg/injection, schedule: Q01DX009 (ip), vehicle: saline): 114 % of control and 111 % of control | T/C (endpoint: median survival time, dose: 0.25 mg/kg/injection, schedule: Q01DX005 (ip), vehicle: saline): 123 % of control | T/C (endpoint: median survival time, dose: 1.0 mg/kg/injection, schedule: Q01DX005 (ip), vehicle: saline): 164 % of control | T/C (endpoint: median survival time, dose: 2.0 mg/kg/injection, schedule: Q01DX005 (ip), vehicle: saline): 111 % of control

O=P(Oc1ccccc1)(Oc1ccccc1)N(CCCl)CCCl
T/C [1]: 101 % of control | T/C [2]: 100 % of control and 108 % of control | T/C (endpoint: mean survival time, dose: 31.25 mg/kg/injection, schedule: Q01DX001 (ip), vehicle: distilled water + Tween-80): 104 % of control | T/C (endpoint: mean survival time, dose: 50.0 mg/kg/injection, schedule: Q01DX009 (ip), vehicle: water): 104 % of control | T/C (endpoint: mean survival time, dose: 62.5 mg/kg/injection, schedule: Q01DX001 (ip), vehicle: distilled water + Tween-80): 107 % of control | T/C (endpoint: mean survival time, dose: 100.0 mg/kg/injection, schedule: Q01DX009 (ip), vehicle: water): 161 % of control | T/C (endpoint: mean survival time, dose: 125.0 mg/kg/injection, schedule: Q01DX001 (ip), vehicle: distilled water + Tween-80): 102 % of control | T/C (endpoint: mean survival time, dose: 250.0 mg/kg/injection, schedule: Q01DX001 (ip), vehicle: distilled water + Tween-80): 119 % of control

[Br][Pt].[NH-]CC[N-]CC[NH-]
T/C [1]: 98 % of control | T/C [2]: 93 % of control

CCCCNC(C)[C@]1(O)Cc2c(O)c3c(c(O)c2[C@@H](OC2CC(N)C(O)C(C)O2)C1)C(=O)c1c(OC)cccc1C3=O (stereo partly drawn)
T/C (endpoint: mean survival time, dose: 0.15 mg/kg/injection, schedule: Q01DX009 (ip), vehicle: water): 106 % of control | T/C (endpoint: mean survival time, dose: 0.31 mg/kg/injection, schedule: Q01DX009 (ip), vehicle: water): 114 % of control | T/C (endpoint: mean survival time, dose: 0.62 mg/kg/injection, schedule: Q01DX009 (ip), vehicle: water): 111 % of control | T/C (endpoint: mean survival time, dose: 1.25 mg/kg/injection, schedule: Q01DX009 (ip), vehicle: water): 112 % of control | T/C (endpoint: mean survival time, dose: 2.5 mg/kg/injection, schedule: Q01DX009 (ip), vehicle: water): 122 % of control | T/C (endpoint: mean survival time, dose: 5.0 mg/kg/injection, schedule: Q01DX009 (ip), vehicle: water): 118 % of control | T/C (endpoint: mean survival time, dose: 10.0 mg/kg/injection, schedule: Q01DX009 (ip), vehicle: water): 88 % of control

O=C(O)CCC1NCCCO1 (stereo not drawn)
T/C (endpoint: mean survival time, dose: 100.0 mg/kg/injection, schedule: Q01DX009 (ip), vehicle: saline): 101 % of control | T/C (endpoint: mean survival time, dose: 100.0 mg/kg/injection, schedule: Q04DX003 (ip), vehicle: saline): 88 % of control | T/C (endpoint: mean survival time, dose: 200.0 mg/kg/injection, schedule: Q01DX009 (ip), vehicle: saline): 95 % of control | T/C (endpoint: mean survival time, dose: 400.0 mg/kg/injection, schedule: Q01DX009 (ip), vehicle: saline): 95 % of control | T/C (endpoint: mean survival time, dose: 400.0 mg/kg/injection, schedule: Q04DX003 (ip), vehicle: saline): 95 % of control

CCC(O)C[As](=O)(O)c1cccc(Cl)c1 (stereo not drawn)
T/C (endpoint: mean survival time, dose: 0.39 mg/kg/injection, schedule: Q01DX009 (ip), vehicle: saline): 95 % of control | T/C (endpoint: mean survival time, dose: 0.78 mg/kg/injection, schedule: Q01DX009 (ip), vehicle: saline): 97 % of control | T/C (endpoint: mean survival time, dose: 1.56 mg/kg/injection, schedule: Q01DX009 (ip), vehicle: saline): 103 % of control | T/C (endpoint: mean survival time, dose: 3.13 mg/kg/injection, schedule: Q01DX009 (ip), vehicle: saline): 114 % of control

COC(=O)NC1C(C)OC(OC2C/C=C(/C)C3C=CC4C(OC5CC(OC6CC(OC7CC(O)C(O)C(C)O7)C(OC7CC(O)C(OC)C(C)O7)C(C)O6)C(O)C(C)O5)C(C)CC(C)C4C3(C)/C(O)=C3\C(=O)OC4(CC(C)C(CO)=CC4/C=C\2C)C3=O)CC1(C)[N+](=O)[O-] (stereo not drawn)
T/C (endpoint: median survival time, dose: 12.5 mg/kg/injection, schedule: Q01DX009 (ip), vehicle: water): 109 % of control | T/C (endpoint: median survival time, dose: 25.0 mg/kg/injection, schedule: Q01DX009 (ip), vehicle: water): 118 % of control | T/C (endpoint: median survival time, dose: 50.0 mg/kg/injection, schedule: Q01DX009 (ip), vehicle: water): 110 % of control

[C-]#[O+].[C-]#[O+].[C-]#[O+].[C-]#[O+].[C-]#[O+].[Cr].c1ccc([PH+](c2ccccc2)c2ccccc2)cc1
T/C (endpoint: mean survival time, dose: 50.0 mg/kg/injection, schedule: Q01DX009 (ip), vehicle: saline with Tween-80): 100 % of control | T/C (endpoint: mean survival time, dose: 100.0 mg/kg/injection, schedule: Q01DX009 (ip), vehicle: saline with Tween-80): 91 % of control | T/C (endpoint: mean survival time, dose: 200.0 mg/kg/injection, schedule: Q01DX009 (ip), vehicle: saline with Tween-80): 93 % of control

CC(C)[S][Pb]([c]1ccccc1)([c]1ccccc1)[c]1ccccc1
T/C (endpoint: mean survival time, dose: 1.25 mg/kg/injection, schedule: Q01DX009 (ip), vehicle: gum acacia): 93 % of control | T/C (endpoint: mean survival time, dose: 2.5 mg/kg/injection, schedule: Q01DX009 (ip), vehicle: gum acacia): 98 % of control | T/C (endpoint: mean survival time, dose: 5.0 mg/kg/injection, schedule: Q01DX009 (ip), vehicle: gum acacia): 96 % of control

O=C(O)c1cc(Cl)c(C(=O)O)cc1Cl
T/C [3]: 96 % of control | T/C [4]: 102 % of control | T/C [5]: 105 % of control

C=C(Br)COCC
T/C [3]: 89 % of control

CCCCCCCCCCCCCCCCCC[N+]1(C)CCC[N+](C)(CCCCCCCCCCCCCCCCCC)CC1 (stereo not drawn)
T/C (endpoint: mean survival time, dose: 100.0 mg/kg/injection, schedule: Q04DX002 (ip), vehicle: saline with Tween-80): 98 % of control and 100 % of control | T/C [3]: 86 % of control and 108 % of control | T/C (endpoint: mean survival time, dose: 200.0 mg/kg/injection, schedule: Q04DX002 (ip), vehicle: saline with Tween-80): 92 % of control and 100 % of control | T/C [4]: 90 % of control and 104 % of control | T/C (endpoint: mean survival time, dose: 400.0 mg/kg/injection, schedule: Q04DX002 (ip), vehicle: saline with Tween-80): 87 % of control and 92 % of control | T/C [5]: 88 % of control
